Measurements as given in the supplement of paper PMC4862054.

Key:
[1] = test system: CAL-120; test: normalised viability (% of control), CellTiter-Blue; higher = more viable cells (about 100 = DMSO control); settings: 10 nM; incubation time: 72 h
Procedure, shortened: (§1)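 384-well plates were pre-loaded with compound in 5 µl medium before 20 µl of breast cancer cell suspension was seeded. Following 72 h incubation, 2.5 µl CellTiter-Blue reagent was added for 2 h at 37 °C. Fluorescence was read at 560/590 nm and plates were normalised to vehicle (100) and a positive kill control (0), checked by Z'-factor. Normalised viability is reported at a single listed concentration of the series.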

[2] = test system: DU-4475; test: as above; settings: 1 nM; incubation time: 72 h
Procedure, shortened: as §1

[3] = test system: MDA-MB-453; test: as above; settings: 1 nM; incubation time: 72 h
Procedure, shortened: as §1

[4] = test system: BT-474; test: as above; settings: incubation time: 72 h
Procedure, shortened: as §1

[5] = test system: BT-549; test: as above; settings: incubation time: 72 h
Procedure, shortened: as §1

[6] = test system: CAL-120; test: as above; settings: incubation time: 72 h
Procedure, shortened: as §1

[7] = test system: CAL-148; test: as above; settings: incubation time: 72 h
Procedure, shortened: as §1

[8] = test system: CAL-51; test: as above; settings: incubation time: 72 h
Procedure, shortened: as §1

[9] = test system: CAL-85-1; test: as above; settings: incubation time: 72 h
Procedure, shortened: as §1

[10] = test system: DU-4475; test: as above; settings: incubation time: 72 h
Procedure, shortened: as §1

[11] = test system: HCC1143; test: as above; settings: incubation time: 72 h
Procedure, shortened: as §1

[12] = test system: HCC1599; test: as above; settings: incubation time: 72 h
Procedure, shortened: as §1

[13] = test system: HCC1937; test: as above; settings: incubation time: 72 h
Procedure, shortened: as §1

[14] = test system: HDQ-P1; test: as above; settings: incubation time: 72 h
Procedure, shortened: as §1

[15] = test system: Hs578T; test: as above; settings: incubation time: 72 h
Procedure, shortened: as §1

[16] = test system: MDA-MB-231; test: as above; settings: incubation time: 72 h
Procedure, shortened: as §1

[17] = test system: MDA-MB-436; test: as above; settings: incubation time: 72 h
Procedure, shortened: as §1

[18] = test system: MDA-MB-453; test: as above; settings: incubation time: 72 h
Procedure, shortened: as §1

[19] = test system: MDA-MB-468; test: as above; settings: incubation time: 72 h
Procedure, shortened: as §1

[20] = test system: MFM-223; test: as above; settings: incubation time: 72 h
Procedure, shortened: as §1

[21] = test system: SK-BR-3; test: as above; settings: incubation time: 72 h
Procedure, shortened: as §1

[22] = test system: CAL-51; test: drug sensitivity score (DSS), CellTox Green (DSS (AUC-based score)); higher = stronger drug effect (viability inhibition or cytotoxicity); extreme values may be limits of the assay; settings: incubation time: 72 h
Procedure, shortened: (§2)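 Breast cancer cell lines were seeded in 20 µl suspension into 384-well plates already holding compound and incubated for 72 h. Each compound was tested at 5 concentrations in 10-fold steps across its own 10,000-fold range. Plates were normalised to 0.1 % DMSO and a positive kill control after CellTox Green and then CellTiter-Glo readings. The area under the fitted dose-response curve served as the basis for the drug sensitivity score.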

[23] = test system: HCC1143; test: as above; settings: incubation time: 72 h
Procedure, shortened: as §2

[24] = test system: MDA-MB-453; test: as above; settings: incubation time: 72 h
Procedure, shortened: as §2

C[C@]12O[C@H](C[C@]1(O)CO)n1c3ccccc3c3c4c(c5c6ccccc6n2c5c31)CNC4=O [Lestaurtinib]
Settings | drug sensitivity score | normalised viability [%]
[1] | – | 103
[2] | – | 109
[3] | – | 98.7
[22] | 0 | –
[23] | 0 | –
[24] | 0 | –

normalised viability [%]
Settings | 0.3 nM | 1 nM | 3 nM | 10 nM | 100 nM | 1000 nM
[4] | – | 120 | – | – | 110 | 69
[5] | – | 88.3 | – | – | 101 | 41.8
[6] | – | 108 | – | – | 60.7 | 47.5
[7] | 96.8 | – | 98.6 | 98.3 | – | –
[8] | 113 | – | 108 | 106 | – | –
[9] | 106 | – | 97.8 | 102 | – | –
[10] | 93.2 | – | 104 | 100 | – | –
[11] | – | 107 | – | – | 89.8 | 61.6
[12] | – | 102 | – | – | 94.6 | 64.8
[13] | – | 89 | – | – | 77.4 | 31.3
[14] | 119 | – | 112 | 126 | – | –
[15] | – | 110 | – | – | 122 | 63.3
[16] | – | 112 | – | – | 104 | 62.6
[17] | – | 102 | – | – | 93.4 | 55.5
[18] | 126 | – | 98.4 | 104 | – | –
[19] | – | 107 | – | – | 106 | 51
[20] | – | 97.6 | – | – | 80.9 | 42.8
[21] | – | 108 | – | – | 102 | 37.2

O=C1c2c(O)ccc(O)c2C(=O)c2c(NCCNCCO)ccc(NCCNCCO)c21 [Mitoxantrone]
Settings | drug sensitivity score | normalised viability [%]
[1] | – | 67.4
[2] | – | 102
[3] | – | 84.8
[22] | 3.21 | –
[23] | 0 | –
[24] | 0 | –

normalised viability [%]
Settings | 0.3 nM | 1 nM | 3 nM | 10 nM | 100 nM | 1000 nM
[4] | – | 99.4 | – | – | 71.1 | 42
[5] | – | 82.4 | – | – | 69 | 35.4
[6] | – | 73.8 | – | – | 44.6 | 17.3
[7] | 91.2 | – | 91.5 | 57.9 | – | –
[8] | 112 | – | 111 | 61.3 | – | –
[9] | 90.3 | – | 84.3 | 86.5 | – | –
[10] | 89 | – | 91.3 | 45.8 | – | –
[11] | – | 83.4 | – | – | 56.6 | 31.2
[12] | – | 97.6 | – | – | 73.3 | 69.8
[13] | – | 65.7 | – | – | 25 | 23.7
[14] | 74.8 | – | 86.7 | 79.2 | – | –
[15] | – | 91.6 | – | – | 77.5 | 38.4
[16] | – | 82 | – | – | 44.2 | 17.4
[17] | – | 87.2 | – | – | 88.3 | 40.1
[18] | 98.7 | – | 87.1 | 74 | – | –
[19] | – | 97.1 | – | – | 57.3 | 37.4
[20] | – | 73.8 | – | – | 84.4 | 35.2
[21] | – | 84.2 | – | – | 34.6 | 14.8
